Results taken from PMC7594877, “Multidirectional in vitro and in cellulo studies as a tool for identification of multi-target-directed ligands aiming at symptoms and causes of Alzheimer’s disease” (Journal of Enzyme Inhibition and Medicinal Chemistry, 2020).
Where “and” joins values, the source holds several entries; their conditions need not be identical. Equal entries are not always repeated. Where two headings read alike, the source gives them in different places. Marks after values point to notes of the source that are not given here.

Tests used:
[1] = target: T1, human BACE1 (Homo sapiens, UniProt P56817); assay: In vitro inhibition of human BACE1, FRET assay; type: biochemical; conditions: mean of three experiments ± SEM; read-out: hBACE1 IC50
T1 construct: purchased Panvera, Madison, WI (BACE1 FRET Assay Kit); host or cells: baculovirus-expressed
T1 sequence (P56817 46-501): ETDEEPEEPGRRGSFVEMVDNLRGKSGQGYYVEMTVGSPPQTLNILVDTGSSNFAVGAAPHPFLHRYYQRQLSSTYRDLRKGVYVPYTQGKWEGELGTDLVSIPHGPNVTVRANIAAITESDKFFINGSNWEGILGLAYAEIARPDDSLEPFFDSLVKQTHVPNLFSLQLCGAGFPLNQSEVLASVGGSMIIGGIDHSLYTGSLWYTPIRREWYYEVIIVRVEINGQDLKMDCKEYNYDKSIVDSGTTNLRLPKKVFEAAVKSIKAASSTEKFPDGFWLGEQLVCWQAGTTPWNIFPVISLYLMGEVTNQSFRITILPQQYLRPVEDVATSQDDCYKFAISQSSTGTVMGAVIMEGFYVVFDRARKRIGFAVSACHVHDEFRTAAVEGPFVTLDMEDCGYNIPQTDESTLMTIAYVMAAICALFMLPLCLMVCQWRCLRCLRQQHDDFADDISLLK
Protocol: To further explore the multifunctional profile of the ligands, we screened them for their inhibitory activity against human BACE1 using spectrofluorometric assay (fluorescence resonance energy transfer (FRET)-based). […] Therefore, BACE1 inhibitors are now being tested in earlier stages of AD and in asymptomatic subjects at risk of AD, with the hope of blocking the disease process before it becomes irreversible.
BACE1 FRET Assay Kit (Panvera, Madison, WI) was performed according to the manufacturer’s protocol with small modifications. The Kit includes purified baculovirus-expressed BACE1 and specific peptide substrate (Rh-[…]-quencher), based on the “Swedish” mutant of APP. The analysis was carried, using 384-well black microplates and a microplate reader (EnSpire Multimode; PerkinElmer, Waltham, MA). The wavelength was optimised for the 553 nm excitation and 576 nm emission. Stock solutions of all test compounds were prepared in DMSO and further diluted with assay buffer (50 mM sodium acetate; pH 4.5). In the first step, 10 μL of BACE1 substrate was mixed with 10 μL of test compound (or assay buffer; i.e. blank sample), then 10 μL of the enzyme (1 U/mL) was added to start the reaction. After 60 min of incubation at 25 °C, 10 μL of stop solution (2.5 M sodium acetate) was applied to stop the reaction. The fluorescence signal was read at 576 nm. Percent of inhibition was calculated from [1 − (S60 − S0)/(C60 − C0)] × 100, where S0 and S60 are fluorescence intensities of the test sample (enzyme, substrate, test compound) at the beginning of the reaction and after 60 min, respectively, while C0 and C60 are analogical fluorescence intensities of the blank sample (enzyme, substrate, buffer). […] Each compound was analysed in triplicate. Commercially available BACE1 Inhibitor IV (Calbiochem, Merck; Nottingham, UK) was used as the reference compound. The IC50 values were calculated using nonlinear regression (GraphPad Prism 5 [GraphPad Software, San Diego, CA, 5.00]) by plotting the residual enzyme activities against the applied inhibitor concentration.

[2] = target: T2, tau (Homo sapiens, UniProt P10636); assay: In cellulo tau aggregation inhibition, Thioflavin S fluorescence in E. coli overexpressing tau; type: cell-based, Escherichia coli; conditions: at 10 µM; mean of three experiments ± SEM
T2 construct: expressed in transfected cells; host or cells: E. coli BL21 (DE3) with pTARA (T7 RNA polymerase under pBAD) and pRKT42
T2 sequence (P10636 other isoform, or with tags, fused parts or gaps): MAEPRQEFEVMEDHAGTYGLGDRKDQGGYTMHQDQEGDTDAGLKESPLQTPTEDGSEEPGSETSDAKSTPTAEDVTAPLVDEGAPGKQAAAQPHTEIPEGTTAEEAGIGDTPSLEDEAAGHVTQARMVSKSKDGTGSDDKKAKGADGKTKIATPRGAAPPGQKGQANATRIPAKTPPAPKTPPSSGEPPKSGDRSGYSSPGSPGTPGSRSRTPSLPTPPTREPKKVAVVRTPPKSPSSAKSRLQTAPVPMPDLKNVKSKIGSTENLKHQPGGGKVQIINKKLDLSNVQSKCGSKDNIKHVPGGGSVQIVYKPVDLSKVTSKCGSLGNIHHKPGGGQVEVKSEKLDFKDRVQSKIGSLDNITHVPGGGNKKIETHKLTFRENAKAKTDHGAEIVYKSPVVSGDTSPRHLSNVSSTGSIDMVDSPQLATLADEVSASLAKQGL
Description: (§1) We screened multifunctional ligands from our in-house library for their anti-aggregating activity against Aβ and tau in the whole bacterial cells using the Thioflavin S (ThS) fluorescence assay. Bacterial cells overexpressing different proteins provide simple models that can be easily employed to monitor the mechanisms of protein aggregation related to a variety of conformational diseases[36]^,[37]. In our assay, E. coli system has been implemented to study the effect of potential Aβ42 and tau aggregation inhibitors within intact cells. The advantage of the test over in vitro tests is the fact that it considers the complexity of the cellular environment that plays a crucial role in tuning protein aggregation. This assay has been validated and successfully applied to assess the anti-aggregating properties of diverse chemical structures. Previously investigated tetrahydrobenzo[h][1,6] naphthyridine-6-chlorotacrine hybrid DP-128 was used as a reference compound[38]^,[39].
(§2) The assays were conducted according to the procedure described previously. All general chemicals were purchased from Sigma-Aldrich (St. Louis, MO) . Reagents for bacterial media were purchased from Conda (Sevilla, Spain). M9 minimal medium for 100 mL: 10 mL of salts 10× (0.68 g of Na2HPO4, 0.30 g of KH2PO4, 0.05 g of NaCl, 0.10 g of NH4Cl), 0.2 mL of 1 M MgSO4, 0.2 mL of 50 mM CaCl2, 2.5 mL of 20% glucose, and 87.1 mL of H2O.
(§3) E. coli competent cells BL21 (DE3) were transformed with the pET28a vector (Novagen, Inc., Madison, WI) carrying the DNA sequence of Aβ42 or with pTARA containing the RNA polymerase gene of T7 phage (T7RP) under the control of the promoter pBAD, then with pRKT42 vector encoding four repeats of tau protein in two inserts. For overnight culture preparation, 10 ml of M9 minimal medium containing 50 μg/mL of kanamycin (Aβ42) or 50 μg/mL of ampicillin and 12.5 μg/mL of chloramphenicol (tau) were inoculated with a colony of BL21 (DE3) bearing the plasmid Aβ42 or tau plasmids to be expressed at 37 °C and 180 rpm using an incubator shaker (Ovan, Barcelona, Spain). After overnight growth, the OD600 was usually 2 − 2.5. For expression of Aβ42 peptide/tau protein, 200 μL of overnight culture were transferred into Eppendorf tubes of 1.5 mL containing 790 μL of fresh M9 minimal medium with 50 μg/mL of kanamycin1 mM of isopropyl 1-thio-β-D-galactopyranoside (IPTG) (Aβ42) or 50 μg/mL of ampicillin, 12.5 μg/mL of chloramphenicol, 0.25% of arabinose (tau), and 25 μM of ThS and 10 μL of reference, tested compounds (1 mM in DMSO, final concentration: 10 μM) or DMSO. The samples were grown for 24 h at 37 °C and 180 rpm using an incubator shaker (Ovan). The samples with DMSO were prepared as a negative control (maximum level of Aβ42/tau, 0% of inhibition). In the positive controls, the M9 medium without IPTG (minimal level of Aβ42) or arabinose (minimal level of tau) was used. For absorbance and fluorescence determination, 200 μL of each Eppendorf tube was transferred in triplicate into 96-well plate. Finally, the fluorescence emission at 520 nm, when exciting at 440 nm and absorbance at 600 nm was recorded using the multi-mode microplate reader (Beckman Counter, Brea, CA). The absorbance at 600 nm (OD600) of these samples was assessed to check the bacterial growth and potential intrinsic toxicity of the tested compounds. Final data are the average of three independent experiments. DP-128 was used as a reference compound[38].

[3] = system: hAChE; conditions: read-out: hAChE IC50; cited from earlier work
[4] = system: eqBuChE; conditions: read-out: eqBuChE IC50; cited from earlier work
[5] = system: SH-SY5Y cells; assay: Cytotoxicity, MTS cell viability assay, SH-SY5Y; type: cell-based, human; conditions: 24 h, read-out: LC50 (cell viability, MTS)
Protocol: (§4) The human liver carcinoma HepG2 cell line was purchased from American Type Culture Collection (LGC Standards, UK). The human neuroblastoma SH-SY5Y cell line was purchased from American Type Culture Collection (CRL-2266, Manassas, VA). The cells were grown in Advanced Dulbecco’s modified Eagle’s medium (Sigma, St. Louis, MO) supplemented with 10% foetal bovine serum (FBS) (HyClone, Logan, UT), 2 mM L-glutamine, 50 U/mL penicillin and 50 μg/mL streptomycin (Sigma, St. Louis, MO) in a humidified atmosphere of 95% air and 5% CO2 at 37 °C, and grown to 80% confluence. Compound 3 was prepared as a stock solution of 20 mM in DMSO and was used at concentrations of 1–100 µM in case of HepG2 treatment, and at concentrations of 0.25–5 µM in case of SH-SY5Y treatment.
(§5) HepG2 and SH-SY5Y cells were seeded in 96-well plates (2 × 10^4/well) and assessed by MTS ([3–(4,5-dimethylthiazol-2-yl)-5–(3-carboxymethoxyphenyl)-2–(4-sulfophenyl)-2H-tetrazolium, inner salt) assay for their response to compound 3. Cells were treated as described above, and cell viability was assessed after 24 h using the CellTiter 96® Aqueous One Solution Cell Proliferation Assay (Promega, Madison, WI), following the manufacturer’s instructions. Absorbance was measured with an automatic microplate reader (Tecan Safire, Switzerland) at a wavelength of 492 nm.

[6] = target: T3, Aβ42 (Homo sapiens, UniProt P05067); assay: In cellulo Aβ42 aggregation inhibition, Thioflavin S fluorescence in E. coli overexpressing Aβ42; type: cell-based, Escherichia coli; conditions: at 10 µM; mean of three experiments ± SEM
T3 construct: expressed in transfected cells; host or cells: E. coli BL21 (DE3) with pET28a-Aβ42, IPTG-induced
T3 sequence (P05067 672-713): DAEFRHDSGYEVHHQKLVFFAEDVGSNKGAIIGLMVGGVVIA
Description: as §1, §2, §3

[7] = system: HepG2 cells; assay: Cytotoxicity, MTS cell viability assay, HepG2; type: cell-based, human; conditions: 24 h, read-out: LC50 (cell viability, MTS)
Protocol: as §4, §5

[8] = target: h5-HT6; set-up: method as in PMID 27560283, PMID 29384656; conditions: read-out: 5-HT6 Ki; cited from earlier work
[9] = target: T3, Aβ42; set-up: method as in di Pietro et al. 38; conditions: at 10 µM; ref di Pietro et al. 38; cited from earlier work
[10] = target: T2, tau; set-up: method as in di Pietro et al. 38; conditions: at 10 µM; ref di Pietro et al. 38; cited from earlier work

Row | Compound | IC50 [1] | In cellulo tau inhibition % [2] | IC50 [3] [nM] | IC50 [4] [nM] | CC50 [5] [nM] | In cellulo Aβ42 inhibition % [6] | CC50 [7] [nM] | Ki [8] [nM] | In cellulo Aβ42 inhibition % [9] | In cellulo tau inhibition % [10]
1 | O=S(=O)(c1ccccc1)n1ccc2c(N3CCN(CCCCCCNc4c5c(nc6ccccc46)CCCC5)CC3)cccc21 [Compound 3] | 7300 nM and 7310 nM | 38% and 37.6 ± 2.4% | 13 | 8 | 1000 | 30% and 29.7 ± 4.0% | 6400 | 2 |  | 
2 | O=C(NCCCCCCCCNc1c2c(nc3cc(Cl)ccc13)CCCC2)c1ccc2nc(-c3ccc(Cl)cc3)c3c(c2c1)NCCC3 [DP-128] |  |  |  |  |  |  |  |  | 77.5 ± 0.9^d % | 68.7 ± 0.5^d %
